“And” between values parts separate entries of the source, which are not always exact repeats. Identical values can stand only once. Toxic doses and inconclusive results are not listed.

The experiment deals with P388 leukemia ip, CD2F1 mice, survival T/C. The experiment in a line: NCI In Vivo Anticancer Drug Screen. Data for tumor model P388 Leukemia (intraperitoneal) in CD2F1 (CDF1) mice. Conditions: endpoint: median survival time, higher = longer survival. In outline:
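Mice carrying the transplanted tumor received test compound or vehicle. Survival was recorded in each group, and the value is the treated-group measurement divided by that of the vehicle-treated control group.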

Setting [1] is: dose: 60.0 mg/kg/injection, schedule: Q01DX005 (ip), vehicle: saline with Tween-80.
Where [2] appears, read: dose: 120.0 mg/kg/injection, schedule: Q01DX005 (ip), vehicle: saline with Tween-80.
Where [3] appears, read: dose: 50.0 mg/kg/injection, schedule: Q01DX009 (ip), vehicle: saline with Tween-80.
Where [4] appears, read: dose: 50.0 mg/kg/injection, schedule: Q01DX009 (ip), vehicle: saline.
The mark [5] stands for this setting: dose: 60.0 mg/kg/injection, schedule: Q01DX005 (ip), vehicle: Klucel (hydroxypropylcellulose) (HPC).
Setting [6] is: dose: 120.0 mg/kg/injection, schedule: Q01DX005 (ip), vehicle: Klucel (hydroxypropylcellulose) (HPC).
The mark [7] stands for this setting: dose: 240.0 mg/kg/injection, schedule: Q01DX005 (ip), vehicle: Klucel (hydroxypropylcellulose) (HPC).
Where [8] appears, read: dose: 50.0 mg/kg/injection, schedule: Q01DX009 (ip), vehicle: Klucel (hydroxypropylcellulose) (HPC).
Where [9] appears, read: dose: 100.0 mg/kg/injection, schedule: Q01DX009 (ip), vehicle: Klucel (hydroxypropylcellulose) (HPC).
[10] abbreviates: dose: 200.0 mg/kg/injection, schedule: Q01DX009 (ip), vehicle: Klucel (hydroxypropylcellulose) (HPC).
[11] abbreviates: dose: 100.0 mg/kg/injection, schedule: Q01DX009 (ip), vehicle: saline with Tween-80.
Where [12] appears, read: dose: 200.0 mg/kg/injection, schedule: Q01DX009 (ip), vehicle: saline with Tween-80.
The mark [13] stands for this setting: dose: 6.25 mg/kg/injection, schedule: Q01DX009 (ip), vehicle: Klucel (hydroxypropylcellulose) (HPC).
[14] abbreviates: dose: 12.5 mg/kg/injection, schedule: Q01DX009 (ip), vehicle: Klucel (hydroxypropylcellulose) (HPC).

In the case of `CN(CCC[NH-])CCC[NH-].[Cl][Pd][Cl]`, the T/C is 102 % of control (dose: 25.0 mg/kg/injection, schedule: Q04DX002 (ip), vehicle: saline); 102 % of control (dose: 50.0 mg/kg/injection, schedule: Q04DX002 (ip), vehicle: saline); 98 % of control (dose: 100.0 mg/kg/injection, schedule: Q04DX002 (ip), vehicle: saline).

Regarding `CN1c2ccccc2C(=O)N2C(=O)CCC21C` (stereo not given), the T/C under setting [1] was 102 % of control and the T/C under setting [2] was 88 % of control.

With `O=C(NNC(=O)c1ccc(Cl)cc1Cl)c1ccco1`, the T/C by setting is: (dose: 12.5 mg/kg/injection, schedule: Q01DX009 (ip), vehicle: saline) 100 % of control; (dose: 25.0 mg/kg/injection, schedule: Q01DX009 (ip), vehicle: saline) 102 % of control and 89 % of control; under setting [3], 100 % of control; under setting [4], 102 % of control and 97 % of control.

With `Cc1cc(N/N=C/c2ccnc3ccccc23)c2cc3c(cc2n1)OCO3`, the T/C reads like this: (dose: 12.5 mg/kg/injection, schedule: Q01DX005 (ip), vehicle: Klucel (hydroxypropylcellulose) (HPC)) 90 % of control and 93 % of control; (dose: 25.0 mg/kg/injection, schedule: Q01DX005 (ip), vehicle: Klucel (hydroxypropylcellulose) (HPC)) 100 % of control and 105 % of control; (dose: 50.0 mg/kg/injection, schedule: Q01DX005 (ip), vehicle: Klucel (hydroxypropylcellulose) (HPC)) 103 % of control and 108 % of control.

Regarding `OCC1CSC(=S)N1Cc1ccccc1` (stereo not given), the T/C under setting [5] is 97 % of control, the T/C under setting [6] is 100 % of control and the T/C under setting [7] was 107 % of control.

Consider `N#CC1C(=O)NC(=O)C(C#N)C1c1ccc(Cl)cc1Cl` (stereo not given), for which the T/C is 96 % of control under setting [8], 105 % of control under setting [9] and 107 % of control under setting [10].

On to `Cc1no[n+]([O-])c1C(N)=O`, for which the T/C by setting is: under setting [1], 101 % of control; under setting [2], 100 % of control; (dose: 240.0 mg/kg/injection, schedule: Q01DX005 (ip), vehicle: saline with Tween-80) 102 % of control.

On to `COc1ccc(/C=C(/C(=O)O)c2ccc(OC)cc2)cc1`, for which the T/C runs as follows: (dose: 100.0 mg/kg/injection, schedule: Q04DX003 (ip), vehicle: other) 100 % of control; (dose: 200.0 mg/kg/injection, schedule: Q04DX003 (ip), vehicle: other) 95 % of control; (dose: 400.0 mg/kg/injection, schedule: Q04DX003 (ip), vehicle: other) 100 % of control.

Turning to `CCCCCCCCCCCC(=O)N(CCOC(=O)c1ccccc1)CCc1ccccc1`, the T/C under setting [3] is 109 % of control, the T/C under setting [11] was 109 % of control and the T/C under setting [12] is 116 % of control.

Regarding `CN(C)CCOC(=O)Nc1ccccc1C(F)(F)F`, the T/C is 99 % of control under setting [1] and 95 % of control under setting [2].

Consider `O=C1CC2OC3C(C2O1)N(C(=O)OCc1ccccc1)C[C@H]3O` (stereo not given in full), for which the T/C is, setting by setting: (dose: 60.0 mg/kg/injection, schedule: Q01DX005 (ip), vehicle: saline) 106 % of control; (dose: 120.0 mg/kg/injection, schedule: Q01DX005 (ip), vehicle: saline) 98 % of control; (dose: 240.0 mg/kg/injection, schedule: Q01DX005 (ip), vehicle: saline) 105 % of control.

In the case of `NC1(P(=O)(O)O)CCCCC1`, the T/C is 116 % of control under setting [3], 111 % of control under setting [11] and 111 % of control under setting [12].

Take `NC(COC(c1ccccc1)(c1ccccc1)c1ccccc1)C(=O)O` (stereo not given): the T/C is, setting by setting: (dose: 100.0 mg/kg/injection, schedule: Q04DX003 (ip), vehicle: saline) 118 % of control; (dose: 200.0 mg/kg/injection, schedule: Q04DX003 (ip), vehicle: saline) 154 % of control.

Regarding `Cc1cc(N(CCOS(C)(=O)=O)CCOS(C)(=O)=O)ccc1C=O`, the T/C is, setting by setting: (dose: 3.12 mg/kg/injection, schedule: Q01DX009 (ip), vehicle: Klucel (hydroxypropylcellulose) (HPC)) 150 % of control and 176 % of control; under setting [13], 174 % of control and 196 % of control; under setting [14], 110 % of control and 213 % of control and 217 % of control.

In the case of `O=c1oc2cc(-c3c(O)c4ccccc4oc3=O)c(O)cc2s1`, the T/C was 113 % of control (dose: 100.0 mg/kg/injection, schedule: Q01DX001 (ip), vehicle: Klucel (hydroxypropylcellulose) (HPC)); 104 % of control (dose: 200.0 mg/kg/injection, schedule: Q01DX001 (ip), vehicle: Klucel (hydroxypropylcellulose) (HPC)); 106 % of control (dose: 400.0 mg/kg/injection, schedule: Q01DX001 (ip), vehicle: Klucel (hydroxypropylcellulose) (HPC)).

Take `CC(C)(C)N=C(CCN1CCN(CCC(=NC(C)(C)C)Nc2ccc(Cl)cc2)CC1)Nc1ccc(Cl)cc1`: the T/C runs as follows: under setting [8], 87 % of control; under setting [9], 93 % of control; under setting [10], 96 % of control.

`CCN(CC)CCn1c(C)nc2c1C(=O)c1nc(C)n(CCN(CC)CC)c1C2=O`: the T/C was 100 % of control (dose: 6.25 mg/kg/injection, schedule: Q01DX005 (ip), vehicle: saline) and 109 % of control (dose: 12.5 mg/kg/injection, schedule: Q01DX005 (ip), vehicle: saline).

Turning to `OCc1ccccc1`, the T/C was 94 % of control (dose: 0.12 % in 0.5 ml injection vol, schedule: Q01DX009 (ip), vehicle: water); 94 % of control (dose: 0.25 % in 0.5 ml injection vol, schedule: Q01DX009 (ip), vehicle: water); 100 % of control and 103 % of control (dose: 0.5 % in 0.5 ml injection vol, schedule: Q01DX009 (ip), vehicle: water); 95 % of control and 98 % of control (dose: 1.0 % in 0.5 ml injection vol, schedule: Q01DX009 (ip), vehicle: water); 98 % of control (dose: 2.0 % in 0.5 ml injection vol, schedule: Q01DX009 (ip), vehicle: water).

For the compound `O=C1CSC(=Nc2ccc(F)cc2F)N1Cc1cccs1`, the T/C reads like this: under setting [5], 102 % of control; under setting [6], 113 % of control; under setting [7], 103 % of control.

Take `Oc1ccccc1C=NCc1ccccc1.[CH-]=C([CH2-])C.[Pd+2]`: the T/C reads like this: under setting [13], 107 % of control; (dose: 6.25 mg/kg/injection, schedule: Q04DX003 (ip), vehicle: Klucel (hydroxypropylcellulose) (HPC)) 92 % of control; under setting [14], 106 % of control; (dose: 12.5 mg/kg/injection, schedule: Q04DX003 (ip), vehicle: Klucel (hydroxypropylcellulose) (HPC)) 113 % of control; (dose: 25.0 mg/kg/injection, schedule: Q01DX009 (ip), vehicle: Klucel (hydroxypropylcellulose) (HPC)) 106 % of control; (dose: 25.0 mg/kg/injection, schedule: Q04DX003 (ip), vehicle: Klucel (hydroxypropylcellulose) (HPC)) 111 % of control.

`CCn1c(=O)c2c(NC)snc2n(CC)c1=O`: the T/C was 97 % of control under setting [4]; 95 % of control (dose: 100.0 mg/kg/injection, schedule: Q01DX009 (ip), vehicle: saline); 98 % of control (dose: 200.0 mg/kg/injection, schedule: Q01DX009 (ip), vehicle: saline).

Values taken from PubChem BioAssay AID330 (DTP/NCI, 2004).
